{
  "source": "ChEMBL document CHEMBL5620354",
  "about": "“Development of isoselenazolium chlorides as selective pyruvate kinase isoform M2 inhibitors” (Eur J Med Chem, 2023)",
  "key": {"4T1 [1]": {"test_system": "4T1", "assay": "Induction of ROS production in mouse 4T1 cells assessed as decrease in NAD+ level at 1 uM incubated for 20 mins by fluorescence cell counter analysis", "type": "functional", "set-up": "scale not given: the % may be the effect or the level left"}, "Jurkat [2]": {"test_system": "Jurkat", "assay": "Induction of mitochondrial respiration in human Jurkat cells assessed as increase in oxygen consumption rate at 1 uM in presence of LEAK state by high-resolution fluorespirometry analysis", "type": "functional, cell-based"}, "HCC1937 [3]": {"test_system": "HCC1937", "assay": "Induction of mitochondrial respiration in human HCC1937 cells assessed as increase in oxygen consumption rate at 1 uM in presence of LEAK state by high-resolution fluorespirometry analysis", "type": "functional, cell-based"}, "4T1 [4]": {"test_system": "4T1", "assay": "Induction of mitochondrial respiration in mouse 4T1 cells assessed as increase in oxygen consumption rate at 1 uM in presence of LEAK state by high-resolution fluorespirometry analysis", "type": "functional, cell-based"}, "4T1 [5]": {"test_system": "4T1", "assay": "Induction of ROS production in mouse 4T1 cells assessed as decrease in NADH level at 1 uM incubated for 20 mins by fluorescence cell counter analysis", "type": "functional", "set-up": "scale not given: the % may be the effect or the level left"}, "[6]": {"assay": "Binding affinity to Sprague-Dawley rat liver Cardiolipin incubated for 10 mins by microplate reader analysis", "type": "tissue-based"}, "MDA-MB-231": {"test_system": "MDA-MB-231", "assay": "Cytotoxicity against human MDA-MB-231 cells assessed as inhibition of cell growth incubated for 48 hrs by MTT assay", "type": "functional, cell-based", "conditions": "MDA-MB-231, 48 h"}, "Pyruvate kinase PKM [7]": {"molecular_target": "T1, Pyruvate kinase PKM (Homo sapiens, UniProt P14618)", "assay": "Inhibition of PKM2 (unknown origin) assessed as increase in tetramer ratio by analytical size-exclusion chromatography", "conditions": "dose 5.0 µM"}, "H9c2 [8]": {"test_system": "H9c2", "assay": "Induction of ROS production in rat H9c2 cells assessed as decrease in NAD+ level at 1 uM incubated for 20 mins by fluorescence cell counter analysis", "type": "functional, cell-based"}, "HCC1937 [9]": {"test_system": "HCC1937", "assay": "Induction of mitochondrial respiration in human HCC1937 cells assessed as increase in oxygen consumption rate at 1 uM in presence of OXPHOS state by high-resolution fluorespirometry analysis", "type": "functional, cell-based"}, "MCF7 [10]": {"test_system": "MCF7", "assay": "cells", "conditions": "Homo sapiens, MCF7, 48 h", "description": "Cytotoxicity against human MCF7 cells assessed as inhibition of cell growth incubated for 48 hrs by MTT assay"}, "HCC1937 [11]": {"test_system": "HCC1937", "assay": "Induction of ROS production in human HCC1937 cells at 1 uM in presence of pyruvate and malate by high-resolution fluorespirometry analysis", "type": "functional, cell-based"}, "MCF7 [12]": {"test_system": "MCF7", "assay": "Induction of mitochondrial respiration in human MCF7 cells assessed as increase in oxygen consumption rate at 1 uM in presence of OXPHOS state by high-resolution fluorespirometry analysis", "type": "functional, cell-based"}, "[13]": {"assay": "Downregulation of PKM2 mRNA expression in human HCC1937 cells assessed as fold change at 0.25 uM incubated for 24 hrs by qPCR analysis", "type": "functional"}, "HCC1937 [14]": {"test_system": "HCC1937", "assay": "Cytotoxicity against human HCC1937 cells assessed as inhibition of cell growth incubated for 48 hrs by MTT assay", "type": "functional, cell-based", "conditions": "HCC1937, 48 h"}, "4T1 [15]": {"test_system": "4T1", "assay": "Induction of mitochondrial respiration in mouse 4T1 cells assessed as increase in oxygen consumption rate at 1 uM in presence of OXPHOS state by high-resolution fluorespirometry analysis", "type": "functional, cell-based"}, "Pyruvate kinase PKM [16]": {"molecular_target": "T1, Pyruvate kinase PKM", "assay": "Inhibition of PKM2 (unknown origin) by ITC analysis"}, "A549": {"test_system": "A549", "assay": "cells", "conditions": "Homo sapiens, A549, 48 h", "description": "Cytotoxicity against human A549 cells assessed as inhibition of cell growth incubated for 48 hrs by MTT assay"}, "4T1 [17]": {"test_system": "4T1", "assay": "Cytotoxicity against mouse 4T1 cells assessed as inhibition of cell growth incubated for 48 hrs by MTT assay", "type": "functional, cell-based", "conditions": "4T1, 48 h, read-out: IC50"}, "Oryctolagus cuniculus": {"species_on_record": "Oryctolagus cuniculus", "assay": "Inhibition of rabbit LDH at 1 uM relative to control"}, "[18]": {"assay": "Downregulation of PKM2 mRNA expression in human HCC1937 cells assessed as fold change at 0.5 uM incubated for 24 hrs by qPCR analysis", "type": "functional"}, "H9c2 [19]": {"test_system": "H9c2", "assay": "Induction of ROS production in rat H9c2 cells assessed as decrease in NADH level at 1 uM incubated for 20 mins by fluorescence cell counter analysis", "type": "functional, cell-based"}, "4T1 [20]": {"test_system": "4T1", "assay": "Downregulation of PKM2 mRNA expression in mouse 4T1 cells at 0.25 to 0.5 uM incubated for 24 hrs by qPCR analysis", "type": "functional, cell-based", "conditions": "dose 0.25-0.5 µM"}, "[21]": {"assay": "Cytotoxicity against rat H9c2 cells assessed as inhibition of cell growth incubated for 48 hrs by MTT assay", "type": "toxicity, cell-based"}, "4T1 [22]": {"test_system": "4T1", "assay": "Induction of ROS production in mouse 4T1 cells at 1 uM in presence of pyruvate and malate by high-resolution fluorespirometry analysis", "type": "functional, cell-based"}, "Jurkat [23]": {"test_system": "Jurkat", "assay": "Induction of mitochondrial respiration in human Jurkat cells assessed as increase in oxygen consumption rate at 1 uM in presence of OXPHOS state by high-resolution fluorespirometry analysis", "type": "functional, cell-based"}, "Pyruvate kinase PKM [24]": {"molecular_target": "T1, Pyruvate kinase PKM", "assay": "Inhibition of N-terminal his8-tagged PKM2 (unknown origin)"}, "MCF7 [25]": {"test_system": "MCF7", "assay": "Induction of mitochondrial respiration in human MCF7 cells assessed as increase in oxygen consumption rate at 1 uM in presence of LEAK state by high-resolution fluorespirometry analysis", "type": "functional, cell-based"}, "4T1 [26]": {"test_system": "4T1", "assay": "Induction of ROS production in mouse 4T1 cells assessed as decrease in NAD+/NADH ratio at 1 uM incubated for 20 mins by fluorescence cell counter analysis", "type": "functional, cell-based"}, "Jurkat [27]": {"test_system": "Jurkat", "assay": "Induction of ROS production in human Jurkat cells at 1 uM in presence of pyruvate and malate by high-resolution fluorespirometry analysis", "type": "functional, cell-based"}, "HCC1937 [28]": {"test_system": "HCC1937", "assay": "Downregulation of PKM1 mRNA expression in human HCC1937 cells at 0.25 to 5 uM incubated for 24 hrs by qPCR analysis", "type": "functional, cell-based", "conditions": "dose 0.25-5 µM"}, "H9c2 [29]": {"test_system": "H9c2", "assay": "Induction of ROS production in rat H9c2 cells assessed as decrease in NAD+/NADH ratio at 1 uM incubated for 20 mins by fluorescence cell counter analysis", "type": "functional, cell-based"}, "Jurkat [30]": {"test_system": "Jurkat", "assay": "Cytotoxicity against human Jurkat cells assessed as inhibition of cell growth incubated for 48 hrs by MTT assay", "type": "functional, cell-based"}, "[31]": {"molecular_target": "Pyruvate kinase PKLR (Homo sapiens) (UniProt P30613)", "sequence (P30613 whole entry, looked up)": "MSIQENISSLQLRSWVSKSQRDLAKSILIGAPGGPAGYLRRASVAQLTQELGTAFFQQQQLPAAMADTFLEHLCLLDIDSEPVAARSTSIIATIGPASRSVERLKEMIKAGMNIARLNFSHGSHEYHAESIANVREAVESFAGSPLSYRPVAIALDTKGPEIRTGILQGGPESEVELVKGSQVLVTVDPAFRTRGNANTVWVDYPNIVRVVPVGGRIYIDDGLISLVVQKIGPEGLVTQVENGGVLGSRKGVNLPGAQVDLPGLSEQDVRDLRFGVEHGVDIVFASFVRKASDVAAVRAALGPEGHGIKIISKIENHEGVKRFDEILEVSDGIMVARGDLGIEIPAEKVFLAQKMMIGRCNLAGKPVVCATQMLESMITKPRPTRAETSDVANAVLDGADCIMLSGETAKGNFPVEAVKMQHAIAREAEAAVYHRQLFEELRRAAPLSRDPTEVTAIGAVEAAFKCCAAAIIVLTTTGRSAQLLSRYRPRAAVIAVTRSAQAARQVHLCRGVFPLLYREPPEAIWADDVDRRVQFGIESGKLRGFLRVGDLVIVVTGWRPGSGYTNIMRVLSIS", "assay": "Inhibition of PKR (unknown origin) at 1 uM relative to control"}, "Pyruvate kinase PKM [32]": {"molecular_target": "T1, Pyruvate kinase PKM", "assay": "Inhibition of PKM1 (unknown origin)", "set-up": "concentration or dose not given beside the values", "conditions": "concentration not given here"}, "Pyruvate kinase PKM [33]": {"molecular_target": "T1, Pyruvate kinase PKM", "assay": "Inhibition of N-terminal his8-tagged PKM2 (unknown origin) in presence of FBP by Michaelis-menten analysis"}, "MCF7 [34]": {"test_system": "MCF7", "assay": "Induction of ROS production in human MCF7 cells at 1 uM in presence of pyruvate and malate by high-resolution fluorespirometry analysis", "type": "functional, cell-based"}},
  "note": "The source made the active and inactive calls. The rule behind the calls is not given here.",
  "data": [
    {"compound": "COC(=O)c1cc[n+]2[se]c(C3(O)CCCCC3)c(Br)c2c1.[Cl-]", "values": [
      {"measurement": "Activity", "setting": "4T1 [1]", "value": 42.8, "unit": "%"},
      {"measurement": "Activity", "setting": "Jurkat [2]", "value": "Active"},
      {"measurement": "Activity", "setting": "HCC1937 [3]", "value": "Active"},
      {"measurement": "Activity", "setting": "4T1 [4]", "value": "Active"},
      {"measurement": "Activity", "setting": "4T1 [5]", "value": 57.4, "unit": "%"},
      {"measurement": "EC50", "setting": "[6]", "value": 3490, "unit": "µM"},
      {"measurement": "IC50", "setting": "MDA-MB-231", "value": 0.51, "unit": "µM"},
      {"measurement": "inhibition", "setting": "Pyruvate kinase PKM [7]", "value": "Dose-Dependent Effect"},
      {"measurement": "Activity", "setting": "H9c2 [8]", "value": "inactive"},
      {"measurement": "Activity", "setting": "HCC1937 [9]", "value": "Active"},
      {"measurement": "IC50", "setting": "MCF7 [10]", "value": 1.16, "unit": "µM"},
      {"measurement": "Activity", "setting": "HCC1937 [11]", "value": "Active"},
      {"measurement": "Activity", "setting": "MCF7 [12]", "value": "Active"},
      {"measurement": "fold change (FC)", "setting": "[13]", "value": 4},
      {"measurement": "IC50", "setting": "HCC1937 [14]", "value": 0.33, "unit": "µM"},
      {"measurement": "Activity", "setting": "4T1 [15]", "value": "Active"},
      {"measurement": "IC50", "setting": "Pyruvate kinase PKM [16]", "value": 0.25, "unit": "µM"},
      {"measurement": "IC50", "setting": "A549", "value": 1.3, "unit": "µM"},
      {"measurement": "IC50", "setting": "4T1 [17]", "value": 0.32, "unit": "µM"},
      {"measurement": "inhibition", "setting": "Oryctolagus cuniculus", "value": 10, "unit": "%"},
      {"measurement": "inhibition", "setting": "Oryctolagus cuniculus; tested as the 2H-labelled form", "value": 13, "unit": "%"},
      {"measurement": "fold change (FC)", "setting": "[18]", "value": 20},
      {"measurement": "Activity", "setting": "H9c2 [19]", "value": "inactive"},
      {"measurement": "Activity", "setting": "4T1 [20]", "value": "Active"},
      {"measurement": "IC50 at 48 h", "setting": "[21]", "value": 2.46, "unit": "µM"},
      {"measurement": "Activity", "setting": "4T1 [22]", "value": "Active"},
      {"measurement": "Activity", "setting": "Jurkat [23]", "value": "Active"},
      {"measurement": "IC50", "setting": "Pyruvate kinase PKM [24]", "value": 0.35, "unit": "µM"},
      {"measurement": "Activity", "setting": "MCF7 [25]", "value": "Active"},
      {"measurement": "Activity", "setting": "4T1 [26]", "value": "inactive"},
      {"measurement": "Activity", "setting": "Jurkat [27]", "value": "Active"},
      {"measurement": "Activity", "setting": "HCC1937 [28]", "value": "inactive"},
      {"measurement": "Activity", "setting": "H9c2 [29]", "value": "inactive"},
      {"measurement": "IC50", "setting": "Jurkat [30]", "value": 0.44, "unit": "µM"},
      {"measurement": "inhibition", "setting": "[31]", "value": 21, "unit": "%"},
      {"measurement": "inhibition", "setting": "[31]; tested as the 2H-labelled form", "value": 16, "unit": "%"},
      {"measurement": "inhibition", "setting": "Pyruvate kinase PKM [32]", "value": 13, "unit": "%"},
      {"measurement": "inhibition", "setting": "Pyruvate kinase PKM [32]; tested as the 2H-labelled form", "value": 10, "unit": "%"},
      {"measurement": "IC50", "setting": "Pyruvate kinase PKM [33]", "value": 0.477, "unit": "µM"},
      {"measurement": "Activity", "setting": "MCF7 [34]", "value": "Active"}
    ]}
  ]
}
